In PubChem BioAssay AID248 (DTP/NCI, 2004):
Values joined by “and” are separate entries in the source; they are usually repeats but may differ in a detail not shown here. Identical values can stand only once. Toxic doses and inconclusive results are not listed.

Test system: L1210 leukemia ip in BDF1 mice, survival T/C
Experiment: NCI In Vivo Anticancer Drug Screen. Data for tumor model L1210 Leukemia (intraperitoneal) in B6D2F1 (BDF1) mice
Details: endpoint: mean survival time, higher = longer survival
Procedure, shortened: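 Transplanted-tumor mice were given test agent; controls received vehicle only. Survival readings from the two groups were divided (treated over control).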

[1] = dose: 5.0 mg/kg/injection, schedule: Q01DX001 (ip), vehicle: saline
[2] = dose: 10.0 mg/kg/injection, schedule: Q01DX001 (ip), vehicle: saline
[3] = dose: 100.0 mg/kg/injection, schedule: Q04DX003 (ip), vehicle: saline with Tween-80
[4] = dose: 200.0 mg/kg/injection, schedule: Q04DX003 (ip), vehicle: saline with Tween-80
[5] = dose: 400.0 mg/kg/injection, schedule: Q04DX003 (ip), vehicle: saline with Tween-80
[6] = dose: 100.0 mg/kg/injection, schedule: Q01DX009 (ip), vehicle: Klucel (hydroxypropylcellulose) (HPC)
[7] = dose: 100.0 mg/kg/injection, schedule: Q04DX003 (ip), vehicle: Klucel (hydroxypropylcellulose) (HPC)
[8] = dose: 200.0 mg/kg/injection, schedule: Q01DX009 (ip), vehicle: Klucel (hydroxypropylcellulose) (HPC)
[9] = dose: 400.0 mg/kg/injection, schedule: Q01DX009 (ip), vehicle: Klucel (hydroxypropylcellulose) (HPC)
[10] = dose: 100.0 mg/kg/injection, schedule: Q04DX002 (ip), vehicle: Klucel (hydroxypropylcellulose) (HPC)
[11] = dose: 200.0 mg/kg/injection, schedule: Q04DX002 (ip), vehicle: Klucel (hydroxypropylcellulose) (HPC)
[12] = dose: 400.0 mg/kg/injection, schedule: Q04DX002 (ip), vehicle: Klucel (hydroxypropylcellulose) (HPC)
[13] = dose: 25.0 mg/kg/injection, schedule: Q04DX003 (ip), vehicle: Klucel (hydroxypropylcellulose) (HPC)
[14] = dose: 50.0 mg/kg/injection, schedule: Q04DX003 (ip), vehicle: Klucel (hydroxypropylcellulose) (HPC)
[15] = dose: 100.0 mg/kg/injection, schedule: Q01DX001 (ip), vehicle: carboxymethylcellulose (CMC)
[16] = dose: 200.0 mg/kg/injection, schedule: Q01DX001 (ip), vehicle: carboxymethylcellulose (CMC)

Structure (SMILES): NC(=S)c1cn(C2OC(CO)C(O)C2O)c2ncnc(N)c12 (stereo not given)
- T/C (dose: 0.5 mg/kg/injection, schedule: Q03HX016 (ip), vehicle: other): 118 % of control
- T/C (dose: 0.5 mg/kg/injection, schedule: Q03HX024 (ip), vehicle: saline): 156 % of control
- T/C (dose: 1.0 mg/kg/injection, schedule: Q03HX016 (ip), vehicle: other): 118 % of control
- T/C (dose: 1.0 mg/kg/injection, schedule: Q03HX024 (ip), vehicle: saline): 172 % of control
- T/C (dose: 2.0 mg/kg/injection, schedule: Q03HX016 (ip), vehicle: other): 176 % of control
- T/C (dose: 2.0 mg/kg/injection, schedule: Q03HX024 (ip), vehicle: saline): 124 % of control
- T/C (dose: 3.75 mg/kg/injection, schedule: Q01DX009 (ip), vehicle: carboxymethylcellulose (CMC)): 110 % of control
- T/C (dose: 4.0 mg/kg/injection, schedule: Q08DX002 (ip), vehicle: other): 123 % of control
- T/C [1]: 112 % of control
- T/C (dose: 7.5 mg/kg/injection, schedule: Q01DX001 (ip), vehicle: carboxymethylcellulose (CMC)): 117 % of control
- T/C (dose: 8.0 mg/kg/injection, schedule: Q04DX003 (ip), vehicle: saline): 151 % of control
- T/C (dose: 8.0 mg/kg/injection, schedule: Q08DX002 (ip), vehicle: other): 123 % of control
- T/C [2]: 118 % of control
- T/C (dose: 15.0 mg/kg/injection, schedule: Q01DX001 (ip), vehicle: carboxymethylcellulose (CMC)): 122 % of control
- T/C (dose: 16.0 mg/kg/injection, schedule: Q04DX003 (ip), vehicle: saline): 96 % of control

Structure (SMILES): Cc1nc(N)nc(C)c1N=Nc1ccc(Br)cc1
- T/C (dose: 100.0 mg/kg/injection, schedule: Q04DX003 (ip), vehicle: other): 90 % of control
- T/C (dose: 200.0 mg/kg/injection, schedule: Q04DX003 (ip), vehicle: other): 102 % of control
- T/C (dose: 400.0 mg/kg/injection, schedule: Q04DX003 (ip), vehicle: other): 100 % of control

Structure (SMILES): O=C(O)c1ccccc1/C=C/c1ccccc1
- T/C (dose: 100.0 mg/kg/injection, schedule: Q01DX009 (ip), vehicle: saline with Tween-80): 96 % of control
- T/C [3]: 104 % of control
- T/C (dose: 200.0 mg/kg/injection, schedule: Q01DX009 (ip), vehicle: saline with Tween-80): 100 % of control
- T/C [4]: 101 % of control
- T/C (dose: 400.0 mg/kg/injection, schedule: Q01DX009 (ip), vehicle: saline with Tween-80): 96 % of control
- T/C [5]: 101 % of control

Structure (SMILES): COc1ccc2c(c1)CC(OC)c1cc3c(nc1-2)-c1ccccc1CC3 (stereo not given)
- T/C [6]: 96 % of control
- T/C [7]: 102 % of control
- T/C [8]: 103 % of control
- T/C (dose: 200.0 mg/kg/injection, schedule: Q04DX003 (ip), vehicle: Klucel (hydroxypropylcellulose) (HPC)): 100 % of control
- T/C [9]: 100 % of control
- T/C (dose: 400.0 mg/kg/injection, schedule: Q04DX003 (ip), vehicle: Klucel (hydroxypropylcellulose) (HPC)): 98 % of control

Structure (SMILES): C(=C/c1ccccn1)/c1ccccc1
- T/C [10]: 100 % of control
- T/C [11]: 103 % of control
- T/C [12]: 122 % of control

Structure (SMILES): [CH3][Sn]([CH3])=[O]
- T/C (dose: 5.0 mg/kg/injection, schedule: Q01DX001 (ip), vehicle: other): 95 % of control
- T/C [1]: 107 % of control
- T/C (dose: 10.0 mg/kg/injection, schedule: Q01DX001 (ip), vehicle: other): 98 % of control
- T/C [2]: 98 % of control
- T/C (dose: 20.0 mg/kg/injection, schedule: Q01DX001 (ip), vehicle: other): 93 % of control
- T/C (dose: 20.0 mg/kg/injection, schedule: Q01DX001 (ip), vehicle: saline): 108 % of control
- T/C (dose: 40.0 mg/kg/injection, schedule: Q01DX001 (ip), vehicle: other): 103 % of control
- T/C (dose: 40.0 mg/kg/injection, schedule: Q01DX001 (ip), vehicle: saline): 95 % of control

Structure (SMILES): COC(=O)c1cncn1C(C)c1cccc2ccccc12 (stereo not given)
- T/C [13]: 96 % of control
- T/C [14]: 102 % of control
- T/C [7]: 101 % of control and 103 % of control

Structure (SMILES): Cc1ccc(/C=C/c2ccccn2)cc1
- T/C (dose: 50.0 mg/kg/injection, schedule: Q01DX001 (ip), vehicle: carboxymethylcellulose (CMC)): 100 % of control
- T/C (dose: 50.0 mg/kg/injection, schedule: Q04DX003 (ip), vehicle: carboxymethylcellulose (CMC)): 105 % of control
- T/C [15]: 100 % of control
- T/C (dose: 100.0 mg/kg/injection, schedule: Q01DX009 (ip), vehicle: carboxymethylcellulose (CMC)): 100 % of control and 90 % of control
- T/C (dose: 100.0 mg/kg/injection, schedule: Q04DX002 (ip), vehicle: carboxymethylcellulose (CMC)): 98 % of control and 107 % of control
- T/C (dose: 100.0 mg/kg/injection, schedule: Q04DX003 (ip), vehicle: carboxymethylcellulose (CMC)): 110 % of control
- T/C [16]: 100 % of control
- T/C (dose: 200.0 mg/kg/injection, schedule: Q01DX009 (ip), vehicle: carboxymethylcellulose (CMC)): 93 % of control and 108 % of control
- T/C (dose: 200.0 mg/kg/injection, schedule: Q04DX002 (ip), vehicle: carboxymethylcellulose (CMC)): 97 % of control and 113 % of control
- T/C (dose: 200.0 mg/kg/injection, schedule: Q04DX003 (ip), vehicle: carboxymethylcellulose (CMC)): 96 % of control
- T/C (dose: 400.0 mg/kg/injection, schedule: Q04DX002 (ip), vehicle: carboxymethylcellulose (CMC)): 98 % of control and 90 % of control

Structure (SMILES): O=c1[nH]cnc2c1ncn2C1CCCCC1
- T/C (dose: 23.12 mg/kg/injection, schedule: Q01DX Z (ip), vehicle: carboxymethylcellulose (CMC)): 100 % of control
- T/C (dose: 46.25 mg/kg/injection, schedule: Q01DX Z (ip), vehicle: carboxymethylcellulose (CMC)): 105 % of control
- T/C (dose: 46.25 mg/kg/injection, schedule: Q01DX Z (oral), vehicle: carboxymethylcellulose (CMC)): 94 % of control
- T/C (dose: 92.5 mg/kg/injection, schedule: Q01DX Z (ip), vehicle: carboxymethylcellulose (CMC)): 96 % of control
- T/C (dose: 92.5 mg/kg/injection, schedule: Q01DX Z (oral), vehicle: carboxymethylcellulose (CMC)): 97 % of control
- T/C (dose: 185.0 mg/kg/injection, schedule: Q01DX Z (ip), vehicle: carboxymethylcellulose (CMC)): 100 % of control
- T/C (dose: 185.0 mg/kg/injection, schedule: Q01DX Z (oral), vehicle: carboxymethylcellulose (CMC)): 100 % of control
- T/C (dose: 370.0 mg/kg/injection, schedule: Q01DX Z (oral), vehicle: carboxymethylcellulose (CMC)): 97 % of control

Structure (SMILES): FC1(F)SC2CCCCCCC2C1(F)F (stereo not given)
- T/C (dose: 12.5 mg/kg/injection, schedule: Q01DX009 (ip), vehicle: Klucel (hydroxypropylcellulose) (HPC)): 98 % of control
- T/C (dose: 12.5 mg/kg/injection, schedule: Q04DX003 (ip), vehicle: Klucel (hydroxypropylcellulose) (HPC)): 97 % of control
- T/C (dose: 25.0 mg/kg/injection, schedule: Q01DX009 (ip), vehicle: Klucel (hydroxypropylcellulose) (HPC)): 104 % of control
- T/C [13]: 101 % of control
- T/C (dose: 50.0 mg/kg/injection, schedule: Q01DX009 (ip), vehicle: Klucel (hydroxypropylcellulose) (HPC)): 100 % of control
- T/C [14]: 95 % of control

Structure (SMILES): [O-][n+]1onc2ccccc21
- T/C (dose: 100.0 mg/kg/injection, schedule: Q01DX001 (ip), vehicle: saline with Tween-80): 97 % of control

Structure (SMILES): CC1CCCCN1Cc1ccccc1COC(=O)c1ccc(Br)cc1 (stereo not given)
- T/C [10]: 101 % of control
- T/C [11]: 92 % of control
- T/C [12]: 96 % of control

Structure (SMILES): COc1ccc(CNS(=O)(=O)c2ccc(C)cc2)cc1OC
- T/C [15]: 96 % of control
- T/C [16]: 110 % of control
- T/C (dose: 400.0 mg/kg/injection, schedule: Q01DX001 (ip), vehicle: carboxymethylcellulose (CMC)): 116 % of control

Structure (SMILES): OC(CN1CCN(c2ccccc2)CC1)c1cc2ccccc2o1 (stereo not given)
- T/C [3]: 104 % of control
- T/C [4]: 94 % of control
- T/C [5]: 94 % of control

Structure (SMILES): COc1ccc([N+](=O)[O-])c2c1CONC2c1c(CO)cnc(C)c1O (stereo not given)
- T/C (dose: 100.0 mg/kg/injection, schedule: Q04DX003 (ip), vehicle: acetone): 90 % of control
- T/C (dose: 200.0 mg/kg/injection, schedule: Q04DX003 (ip), vehicle: acetone): 96 % of control
- T/C (dose: 400.0 mg/kg/injection, schedule: Q04DX003 (ip), vehicle: acetone): 89 % of control

Structure (SMILES): O=c1[nH]cnc2ccccc12
- T/C [6]: 107 % of control
- T/C [8]: 93 % of control
- T/C [9]: 103 % of control
